In patent US9713332B2, “Glyphosate application for weed control in Brassica” (priority 2013, dated 2017):

Key:
[1] = test system: canola event DP-73496-4 (GAT1); assay: Herbicide efficacy field trials, chlorosis / crop response after late stage glyphosate application; assay type: in vivo
Description: Field trials were split plot designed with glyphosate treatments as the main factor and entries as the subplot. Entries were randomized within the split factor, and the split was randomized within the replicate.
The following treatments with glyphosate were used as detailed below at different growth stages. In these tests, 1X glyphosate treatment was 675 g ae/ha, 2X glyphosate treatment was 1350 g ae/ha, 3X glyphosate treatment was 2025 g ae/ha and 4X glyphosate treatment was 2700 g ae/ha. All treatments were applied using a mechanical sprayer. For example, in Treatment 1 below, “2X cotyledon” describes a treatment of 1350 g ae/ha of glyphosate at the cotyledon growth stage. Various treatments were tested over a two year period and are described below.
(§1) • 1. 2X cotyledon • 2. 2X 3-5 leaf stage • 3. 2X cot+2X 3-5 leaf stage • 4. 2X cot+2X bolting BBCH55 • 5. 4X cotyledon • 6. 4X 3-5 leaf stage Treatments Tested in Year 2: • 1. 1X cotyledon+1X 3-5 leaf stage • 2. 2X cotyledon+2X 3-5 leaf stage • 3. 1X cotyledon+1X green bud BBCH51 • 4. 2X cotyledon+2X green bud BBCH51 • 5. 1X cotyledon+1X 10% flower BBCH61 • 6. 2X cotyledon+2X 10% flower BBCH61
Percent chlorosis was determined. Visual rating of chlorosis on plants was taken during the period indicated (i.e. 3-5 days) after spray application. Yellowing of the apical meristem, newest leaves or older leaves indicated herbicide-induced chlorotic injury. 100%=all tissue is yellow, 0%=no signs of yellowing tissue.
Late stage glyphosate applications are applications of glyphosate at later growth stages than on the glyphosate label. […] In Year 1, the expanded window application of glyphosate was 2X cot+2X bolting BBCH55; a 2X treatment during the cotyledon stage and an additional 2X treatment during the plant growth stage where individual flower buds (main inflorescence) are visible but are still closed. In Year 2, 1X cotyledon, 1X green bud BBCH51; 2X cotyledon, 2X green bud BBCH51; 1X cotyledon, 1X 10% flower BBCH61; and 2X cotyledon, 2X 10% flower BBCH61 expanded window treatments were included.

[2] = test system: GAT1 and GAT2 events; assay: Herbicide efficacy trials in 9 locations, herbicide-induced necrosis and chlorosis injury; assay type: in vivo, Brassica
Description: (§2) Transgenic events expressing GAT1 and GAT2 genes were tested herein. GAT1, as mentioned herein is the Brassica GAT event DP-073496-4 (PCT International Patent Application No. PCT/US2010/058011, incorporated by reference). GAT2, as mentioned herein is another transgenic Brassica line expressing a GAT variant.
Chlorosis percent injury describes a visual rating of the percentage of the plant with a yellowing of the apical meristem, newest leaves or older leaves, where 100% denotes that all tissue is yellow, and 0% denotes the absence of yellowing tissue in plants treated with herbicide.
GAT2 events were subjected to herbicide efficacy trials along with the GAT1 as diagonal check in 9 different locations. The herbicide efficacy trials consisted of 6 treatments that included: a control with no glyphosate, 2X, 4X or 8X glyphosate administered at the 3-5 leaf stage (1X=675 g ae/ha), a 2X administered during the 3-5 leaf stage and during the green bud stage (+2X Green Bud), and a 2X administered during the 3-5 leaf stage and during 10% bloom (+2X 10% Bloom). Herbicide-induced necrosis and chlorosis injury was recorded at leaf stages 5, 10, 21 and 30 DAT (days after treatment). […] Yield from different treatments was expressed as a percent to the 2X treatment at the 3 to 5 leaf stage. […] The application of 4X glyphosate at the 3-5 leaf stage led to a 6 to 8% decrease in yield compared to the 2X treatment, and at the 8X rate, yield decreased from 10 to 12% in treated events compared to the 2X treatment (FIG. 3).

[3] = test system: GAT1 and GAT2 events; assay: Herbicide efficacy trials in 9 locations, yield as percent to the 2X treatment at the 3 to 5 leaf stage; assay type: in vivo, Brassica; settings: 2X at the 3-5 leaf stage and 2X during green bud or 10% bloom stage; FIG. 3
Description: as §2
Percentage of yield relative to 2X describes the yield obtained for the GAT events treated with respective glyphosate herbicide treatments compared to the same GAT events subjected to a solution containing 2X glyphosate treatment at the 3 to 5 leaf stage, expressed as a percentage of the 2X treatment at the 3 to 5 leaf stage.
GAT2 events were subjected to herbicide efficacy trials along with the GAT1 as diagonal check in 9 different locations. The herbicide efficacy trials consisted of 6 treatments that included: a control with no glyphosate, 2X, 4X or 8X glyphosate administered at the 3-5 leaf stage (1X=675 g ae/ha), a 2X administered during the 3-5 leaf stage and during the green bud stage (+2X Green Bud), and a 2X administered during the 3-5 leaf stage and during 10% bloom (+2X 10% Bloom). Herbicide-induced necrosis and chlorosis injury was recorded at leaf stages 5, 10, 21 and 30 DAT (days after treatment). […] Yield from different treatments was expressed as a percent to the 2X treatment at the 3 to 5 leaf stage. […]

[4] = test system: canola event DP-73496-4 (GAT1); assay: Herbicide efficacy field trials, determination of yield; assay type: in vivo
Description: Field trials were split plot designed with glyphosate treatments as the main factor and entries as the subplot. The split-plot design was used since more than one glyphosate treatment in each location was evaluated, where a different treatment to an individual plot was applied. In split-plot, the levels of the main-plot factor (glyphosate treatments) and the sub-plot factors (individual event entries) within the main-plots were randomized.
The following treatments with glyphosate were used as detailed below at different growth stages. In these tests, 1X glyphosate treatment was at 675 g ae/ha, 2X glyphosate treatment was at 1350 g ae/ha, 3X glyphosate treatment was at 2025 g ae/ha and 4X glyphosate treatment was at 2700 g ae/ha as active ingredient of glyphosate. All treatments were applied using a mechanical sprayer. For example, in Treatment 1 below, “2X cotyledon” describes a treatment of 1350 g ae/ha of glyphosate at the cotyledon growth stage. Various treatments were tested over a two year period and are described below.
as §1
To reduce the growth of weeds in the control plots, conventional herbicides or mechanical pulling of weeds were used as needed. There was no glyphosate applied to the control plots and was used as the control/base to which other glyphosate treatments were compared. The control plots may have had one or more weeds present during the growing season. Control is based on conventional herbicides that are registered for use in all canola.
Plots were considered desiccated when 60-70% of the seed had turned from green to black colour. Combining occurred 5-14 days after desiccation depending on the weather conditions. Each plot was harvested individually. Moisture and weight were recorded directly on the combine. Yield was determined for the GAT1 event.
Various locations were used in the test. Trials were evaluated across 10 locations in both Year 1 and Year 2. Locations included several sites in the short, mid, and long season zones across both years.
The event that was tested was canola event DP-73496-4 (GAT1) (PCT International Patent Application No. PCT/US2010/058011, incorporated by reference).
Late stage glyphosate applications are applications of glyphosate at later growth stages than on the glyphosate label. […]

Compound: O=C(O)CNCP(=O)(O)O [glyphosate]
- chlorosis ([1]; Year 1, 2X Cot and 2X Bolting BBCH55 (2X = 1350 g ae/ha), all three hybrids, one location): 1%
- recovery of transient chlorosis ([1]; Year 1, 2X Cot and 2X Bolting BBCH55, 10 days after glyphosate application): Full recovery
- chlorosis ([1]; Year 1, 2X Cot and 2X Bolting BBCH55, one hybrid background, second location): 3%
- crop response ([1]; Year 1, 2X Cot and 2X Bolting BBCH55, remaining eight locations): no crop response
- crop response ([1]; Year 2, extended window glyphosate treatments, four GAT-expressing canola backgrounds): did not have any crop response
- chlorotic injury ([2]; both GAT1 and GAT2 events, even at 8X spray rates, and during green bud and 10% bloom, FIG. 2): Negligible
- herbicide-induced necrotic injury ([2]; even at 8X spray rates (1X = 675 g ae/ha), FIG. 1): minimally observed
- herbicide-induced injury (necrosis, chlorosis) beyond 10 DAT ([2]; rated 5, 10, 21 and 30 DAT, 2X, 4X, 8X at 3-5 leaf, 2X+2X green bud, 2X+2X 10% bloom): No injury was observed
- differences in yield compared to the 2X treatment at 3-5 leaf stage [3]: no appreciable differences in yield
- yield compared to the control treatment ([4]; Year 1, 2X Cot and 2X Bolting BBCH55): not significantly different
- yield compared to the control treatment ([4]; Year 2, late split applications at 2X glyphosate (1350 g ae/ha), BBCH51 and BBCH61): did not result in yield reduction
- yield compared to the control treatment ([4]; Year 2, split applications 1X Cot and 1X BBCH51 (green bud), 1X Cot and 1X BBCH61 (10% flower), four backgrounds, 1X = 675 g ae/ha): did not result in yield reduction
- yield of GAT1 compared to the controls ([4]; at X treatment): did not show a reduction in yield
